In PubChem BioAssay AID256 (DTP/NCI, 2004):
Where “and” joins values, the source holds several entries; their conditions need not be identical. Equal entries are not always repeated. Inconclusive results and toxic doses are left out. How the source made its calls: active means survival T/C of 150% or more; inactive means T/C below 125% in these data.

System: CD2F1 mice, L1210 leukemia ip, survival T/C
Assay: NCI In Vivo Anticancer Drug Screen. Data for tumor model L1210 Leukemia (intraperitoneal) in CD2F1 (CDF1) mice
Details: higher = longer survival
How it was run: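 Ratio T/C, where T is the treated-group value and C the vehicle-dosed control value, from mice implanted with a transplantable tumor.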

[1] = endpoint: mean survival time, dose: 100.0 mg/kg/injection, schedule: Q04DX003 (ip), vehicle: saline with Tween-80
[2] = endpoint: mean survival time, dose: 200.0 mg/kg/injection, schedule: Q04DX003 (ip), vehicle: saline with Tween-80
[3] = endpoint: mean survival time, dose: 400.0 mg/kg/injection, schedule: Q04DX003 (ip), vehicle: saline with Tween-80
[4] = endpoint: mean survival time, dose: 100.0 mg/kg/injection, schedule: Q01DX001 (ip), vehicle: saline
[5] = endpoint: mean survival time, dose: 100.0 mg/kg/injection, schedule: Q01DX009 (ip), vehicle: saline with Tween-80
[6] = endpoint: mean survival time, dose: 200.0 mg/kg/injection, schedule: Q01DX009 (ip), vehicle: saline with Tween-80
[7] = endpoint: mean survival time, dose: 400.0 mg/kg/injection, schedule: Q01DX009 (ip), vehicle: saline with Tween-80
[8] = endpoint: mean survival time, dose: 100.0 mg/kg/injection, schedule: Q01DX001 (ip), vehicle: saline with Tween-80
[9] = endpoint: mean survival time, dose: 200.0 mg/kg/injection, schedule: Q01DX001 (ip), vehicle: saline with Tween-80
[10] = endpoint: mean survival time, dose: 200.0 mg/kg/injection, schedule: Q01DX009 (ip), vehicle: saline

Measured: T/C

O=C1CN(c2ccccc2)C(=O)C1C(=O)Nc1ccc(Cl)c(Cl)c1 (stereo unspecified)
inactive: endpoint: median survival time, dose: 25.9 mg/kg/injection, schedule: Q01DX005 (ip), vehicle: saline with Tween-80 104 % of control | endpoint: median survival time, dose: 30.0 mg/kg/injection, schedule: Q01DX005 (ip), vehicle: saline with Tween-80 97 % of control | endpoint: median survival time, dose: 43.0 mg/kg/injection, schedule: Q01DX005 (ip), vehicle: saline with Tween-80 101 % of control and 104 % of control | endpoint: median survival time, dose: 43.2 mg/kg/injection, schedule: Q01DX005 (ip), vehicle: saline with Tween-80 98 % of control and 104 % of control | endpoint: median survival time, dose: 60.0 mg/kg/injection, schedule: Q01DX005 (ip), vehicle: saline with Tween-80 102 % of control

N#CC1CC(c2cccs2)Nc2ccccc2N1 (stereo unspecified)
inactive: [1] 94 % of control | [2] 90 % of control | [3] 100 % of control

CC(Cc1ccc2c(c1)OCO2)NCC(O)c1ccc(O)c(O)c1 (stereo unspecified)
inactive: [4] 103 % of control | endpoint: mean survival time, dose: 200.0 mg/kg/injection, schedule: Q01DX001 (ip), vehicle: saline 109 % of control

O=C(C1=CCCCC1)c1ccc(-c2ccccc2)cc1
inactive: [5] 102 % of control | [1] 95 % of control | [6] 91 % of control | [2] 95 % of control | [7] 96 % of control | [3] 93 % of control

CS/C([S-])=N/[NH-].CS/C([S-])=N/[NH-].[Pd]
inactive: [8] 107 % of control | [9] 103 % of control

COc1ccc(NC(=O)Nc2ccc(Br)cc2)cc1
inactive: [5] 88 % of control | [1] 96 % of control | [6] 89 % of control | [2] 98 % of control | [7] 89 % of control

O=C(CC(=O)c1ccccc1F)Nc1ccc([N+](=O)[O-])cc1
inactive: [5] 90 % of control | [1] 96 % of control | [6] 93 % of control | [2] 95 % of control | [7] 88 % of control | [3] 97 % of control

O=C1CCCCCCCCCCC1Sc1ccccc1 (stereo unspecified)
inactive: [1] 91 % of control | [2] 100 % of control | [3] 91 % of control

CC(C)(C)[Si](C)(C)OP(=O)(O[Si](C)(C)C(C)(C)C)N(CCCl)CCCl
inactive: endpoint: mean survival time, dose: 15.63 mg/kg/injection, schedule: Q01DX001 (ip), vehicle: distilled water + Tween-80 97 % of control | endpoint: mean survival time, dose: 31.3 mg/kg/injection, schedule: Q01DX001 (ip), vehicle: distilled water + Tween-80 103 % of control | endpoint: mean survival time, dose: 62.5 mg/kg/injection, schedule: Q01DX001 (ip), vehicle: distilled water + Tween-80 106 % of control | endpoint: mean survival time, dose: 125.0 mg/kg/injection, schedule: Q01DX001 (ip), vehicle: distilled water + Tween-80 105 % of control | endpoint: mean survival time, dose: 250.0 mg/kg/injection, schedule: Q01DX001 (ip), vehicle: distilled water + Tween-80 101 % of control | endpoint: mean survival time, dose: 500.0 mg/kg/injection, schedule: Q01DX001 (ip), vehicle: distilled water + Tween-80 109 % of control

CCCCCCn1ncc(=O)[nH]c1=O
inactive: endpoint: mean survival time, dose: 12.5 mg/kg/injection, schedule: Q01DX009 (ip), vehicle: saline 101 % of control and 102 % of control (2×) | endpoint: mean survival time, dose: 25.0 mg/kg/injection, schedule: Q01DX009 (ip), vehicle: saline 93 % of control and 98 % of control and 101 % of control | [10] 96 % of control

O=Cc1[nH]c(=S)[nH]c(=O)c1Cc1ccc(Cl)cc1
inactive: [1] 104 % of control

CC(C)(C)C(C)(O)CN (stereo unspecified)
inactive: endpoint: mean survival time, dose: 100.0 mg/kg/injection, schedule: Q04DX003 (ip), vehicle: saline 95 % of control | endpoint: mean survival time, dose: 200.0 mg/kg/injection, schedule: Q04DX003 (ip), vehicle: saline 101 % of control | endpoint: mean survival time, dose: 400.0 mg/kg/injection, schedule: Q04DX003 (ip), vehicle: saline 92 % of control

Cc1ccc(C2(c3ccccc3)c3ccccc3C(=O)N2c2ccccc2)cc1 (stereo unspecified)
inactive: [1] 97 % of control | [2] 101 % of control | [3] 103 % of control

O=C(CBr)CC(O)(C(F)(F)F)C(F)(F)F
inactive: endpoint: mean survival time, dose: 12.5 mg/kg/injection, schedule: Q04DX003 (ip), vehicle: saline 98 % of control

O=C(COc1ccc(Cl)cc1Cl)Nc1cc[n+](Cc2ccc(S(=O)(=O)F)cc2)cc1
inactive: [1] 98 % of control | [2] 98 % of control | [3] 95 % of control

CC(=O)Nc1ccc(S(=O)(=O)F)cc1
inactive: endpoint: mean survival time, dose: 50.0 mg/kg/injection, schedule: Q01DX009 (ip), vehicle: saline with Tween-80 93 % of control | [8] 91 % of control | [5] 93 % of control | [1] 94 % of control | [9] 100 % of control | [2] 102 % of control

CCOC(=O)C(C)(C(=O)OCC)c1cc2ccccc2c2ccccc12
inactive: endpoint: mean survival time, dose: 100.0 mg/kg/injection, schedule: Q01DX001 (ip), vehicle: Klucel (hydroxypropylcellulose) (HPC) 104 % of control | endpoint: mean survival time, dose: 200.0 mg/kg/injection, schedule: Q01DX001 (ip), vehicle: Klucel (hydroxypropylcellulose) (HPC) 104 % of control | endpoint: mean survival time, dose: 400.0 mg/kg/injection, schedule: Q01DX001 (ip), vehicle: Klucel (hydroxypropylcellulose) (HPC) 104 % of control

Cc1ccc(C(=O)OCCN2CCOCC2)c([N+](=O)[O-])c1OCc1ccccc1
inactive: endpoint: mean survival time, dose: 100.0 mg/kg/injection, schedule: Q04DX002 (ip), vehicle: other 94 % of control | endpoint: mean survival time, dose: 200.0 mg/kg/injection, schedule: Q04DX002 (ip), vehicle: other 103 % of control | endpoint: mean survival time, dose: 400.0 mg/kg/injection, schedule: Q04DX002 (ip), vehicle: other 91 % of control

C/C(=N\O)c1ccc2[nH]c(C)cc(=O)c2c1
inactive: endpoint: mean survival time, dose: 37.5 mg/kg/injection, schedule: Q01DX009 (ip), vehicle: saline 97 % of control | endpoint: mean survival time, dose: 75.0 mg/kg/injection, schedule: Q01DX009 (ip), vehicle: saline 97 % of control | endpoint: mean survival time, dose: 75.0 mg/kg/injection, schedule: Q04DX003 (ip), vehicle: saline 95 % of control | endpoint: mean survival time, dose: 150.0 mg/kg/injection, schedule: Q01DX009 (ip), vehicle: saline 92 % of control | endpoint: mean survival time, dose: 150.0 mg/kg/injection, schedule: Q04DX003 (ip), vehicle: saline 95 % of control | endpoint: mean survival time, dose: 300.0 mg/kg/injection, schedule: Q04DX003 (ip), vehicle: saline 93 % of control

CN1C(=O)C(C)(C)C(=O)C1(C)C
inactive: endpoint: mean survival time, dose: 25.0 mg/kg/injection, schedule: Q01DX001 (ip), vehicle: saline 103 % of control | endpoint: mean survival time, dose: 50.0 mg/kg/injection, schedule: Q01DX001 (ip), vehicle: saline 104 % of control | [4] 103 % of control

NNc1nnc(Cl)cc1N
inactive: [1] 109 % of control

O=P(N1CCCC1)(N1CCCC1)N1CCCC1.O=[N+]([O-])O.O=[N+]([O-])O.[O]=[U]=[O]
inactive: endpoint: mean survival time, dose: 3.12 mg/kg/injection, schedule: Q04DX003 (ip), vehicle: Klucel (hydroxypropylcellulose) (HPC) 102 % of control | endpoint: mean survival time, dose: 12.5 mg/kg/injection, schedule: Q04DX003 (ip), vehicle: Klucel (hydroxypropylcellulose) (HPC) 102 % of control

CCOC(=O)NC(=O)/C=C/N1CCCC1
inactive: endpoint: mean survival time, dose: 50.0 mg/kg/injection, schedule: Q01DX009 (ip), vehicle: saline 102 % of control | endpoint: mean survival time, dose: 100.0 mg/kg/injection, schedule: Q01DX009 (ip), vehicle: saline 97 % of control | [10] 94 % of control

O=C1N=c2cc([N+](=O)[O-])c([N+](=O)[O-])cc2=N1
inactive: [8] 97 % of control | [9] 103 % of control | endpoint: mean survival time, dose: 400.0 mg/kg/injection, schedule: Q01DX001 (ip), vehicle: saline with Tween-80 98 % of control

CCOP(=O)(OCC)ON1C(=O)c2cccc3cccc(c23)C1=O
inactive: endpoint: mean survival time, dose: 3.12 mg/kg/injection, schedule: Q01DX009 (ip), vehicle: Klucel (hydroxypropylcellulose) (HPC) 100 % of control | endpoint: mean survival time, dose: 6.25 mg/kg/injection, schedule: Q01DX009 (ip), vehicle: Klucel (hydroxypropylcellulose) (HPC) 95 % of control | endpoint: mean survival time, dose: 12.5 mg/kg/injection, schedule: Q01DX009 (ip), vehicle: Klucel (hydroxypropylcellulose) (HPC) 95 % of control | endpoint: mean survival time, dose: 25.0 mg/kg/injection, schedule: Q01DX009 (ip), vehicle: Klucel (hydroxypropylcellulose) (HPC) 93 % of control
